Experimental data published in paper PMC8958504 (Journal of Medicinal Chemistry, 2022).
Entries after “also recorded” stand apart in the source; their conditions may differ.

Key:
HO-1 = test: Western blotting of HO-1 in hippocampal slices exposed to OA; assay type: cell-based, mouse; conditions: hippocampal slices treated with OA
Description: As iNOS can be produced through the NF-κB (nuclear factor kappa-light-chain-enhancer of activated B cells) pathway, we analyzed the levels of p65, one of the components that form the NF-κB transcription factor family.[82] […] We also measured HO-1, an inducible enzyme transcribed by NRF2, known for its anti-inflammatory, antioxidant, and neuroprotective effects. […] NRF2 and NF-κB signaling pathways cooperate to maintain the physiological homeostasis of cellular redox status and to regulate the cellular response to stress and inflammation.[19],[83] […] This last mechanism could be related to our resveratrol-based MTDL 4e.
After acute treatment, the hippocampal slices were lysed in a cold AKT lysis buffer (137 mM NaCl, 20 mM NaF, 10% glycerol, 20 mM Tris–HCl, 1% Nonidet P-40, 1 μg/mL leupeptin, 1 mM phenylmethylsulfonylfluoride, 1 mM sodium pyrophosphate, and 1 mM Na3VO4, pH 7.5). The total protein in each sample was quantified using the Pierce BCA protein kit (Thermo Fisher). 20 μg of protein was resolved by sodium dodecyl sulfate polyacrylamide gel electrophoresis (SDS-PAGE) and transferred to Immobilon-P PVDF membranes (Millipore Corp.). […] The membranes were washed, incubated with ECL WB Kit (GE Healthcare, Amersham), and exposed using a ChemiDoc MP system (Bio-Rad Laboratories) for the visualization of the specific bands, which were then analyzed with Fiji software.

[1] = In vitro glutathione conjugation (LC-IT-MS); assay type: in vitro ADME; conditions: 100 μM, GSH 1 mM, with or without GST, 37 °C, 1 h
Protocol: As the control, nonenzymatic reaction (mixture lacking GST) was also performed.
The reaction was maintained at 37 °C for 1 h. As a control, the nonenzymatic reaction mixture (mixture lacking GST) was incubated for 1 h at 37 °C. The reactions were stopped by adding 100 μL of 20% trifluoroacetic acid. The samples were prepared for analysis by adding 400 μL of a 50:50 mixture of MeOH/CH3CN. The reaction mixtures were analyzed using an API QSTAR pulsar I LC–MS/MS system (Applied Biosystems, Madrid, Spain) equipped with an electrospray ionization source and connected to a LC system 1100 series (Agilent Technologies, Madrid, Spain). […] The LC-IT-MS was operated in the positive ion mode.

[2] = Oxygen radical absorbance capacity (ORAC-FL) assay; conditions: trolox = 1.0
mouse hippocampal slices = conditions: 1 μM, OA 1 μM, 6 h
Protocol: Once the treatment was ended, the cell viability was measured by the MTT method, cell death with the fluorescent probe PI (1 μg/mL), and ROS production with the fluorescent probe H2DCFDA (10 μL/mL).
(§1) Fluorescence from whole slices was measured as the mean intensity with an inverted Nikon eclipse T2000-U microscope (Nikon Instruments). […] The results were normalized to the basal condition, which was considered as 100%. Image analysis was performed using Fiji software.

[3] = test system: mice hippocampal organotypic cultures; test: Organotypic hippocampal culture, chronic OA treatment; assay type: cell-based, mouse; conditions: 1 μM, OA 10 nM, 72 h
Protocol: 6–10 days old mice (C57BL/6j) were sacrificed, and hippocampi were carefully removed in Hank’s balanced salt solution (HBBS). 300 μm slices were cut and placed in 0.4 μm culture inserts (Merck-Millipore, Germany) and stabilized for 24 h at 37 °C in neurobasal media (Gibco, Invitrogen) supplemented with 10% FBS (Gibco, Invitrogen). […] Finally, cell death and ROS production were determined with the fluorescent probes PI (1 μg/mL) and H2DCFDA (10 μg/mL), respectively.
as §1

in vitro = in vitro ADME
hMAO-B = molecular target: T1, hMAO-B (Homo sapiens, UniProt P27338); test: biochemical; conditions: read-out: hMAO-B (IC50); recombinant hMAO-B, p-tyramine substrate
T1 sequence (P27338 1-520): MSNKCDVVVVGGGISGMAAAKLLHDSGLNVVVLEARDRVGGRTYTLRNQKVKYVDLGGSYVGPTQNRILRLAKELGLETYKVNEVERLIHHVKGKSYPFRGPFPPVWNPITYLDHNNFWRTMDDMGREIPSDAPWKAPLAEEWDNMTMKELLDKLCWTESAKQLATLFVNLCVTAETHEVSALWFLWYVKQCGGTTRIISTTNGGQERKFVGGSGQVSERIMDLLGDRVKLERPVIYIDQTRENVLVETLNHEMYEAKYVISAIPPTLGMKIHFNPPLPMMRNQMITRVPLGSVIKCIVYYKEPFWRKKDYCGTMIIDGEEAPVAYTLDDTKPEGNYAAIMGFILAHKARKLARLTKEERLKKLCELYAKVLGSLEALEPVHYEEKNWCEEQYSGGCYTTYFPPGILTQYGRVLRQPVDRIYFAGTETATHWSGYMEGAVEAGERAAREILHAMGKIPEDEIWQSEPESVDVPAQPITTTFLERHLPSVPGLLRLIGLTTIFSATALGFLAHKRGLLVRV
Protocol: The hMAO-A/B inhibition of all compounds was determined using the Amplex Red MAO assay kit.
Assays were performed following the general procedure previously described.[98] […] The specific fluorescence emission was calculated after subtracting the background activity, which was determined from wells containing all components except the hMAO isoforms, which were replaced with PBS.

In the case of C#CCn1nc(/C=C/c2ccc(OC)cc2)oc1=O [4e, 5-[(E)-2-(4-Methoxyphenyl)ethenyl]-3-(prop-2-yn-1-yl)-1,3,4-oxadiazol-2(3H)-one], the HO-1 level (HO-1) is reported as “further increased”, the GSH adduct formation [1] is reported as “no peaks corresponding to GS-4e adducts were found” and the “ORAC (trolox equiv)” value [2] is reported as under 0.1 trolox equiv. The “ROS production (H2DCFDA)” value (mouse hippocampal slices) was “reduced ROS production to basal levels”, the “cell viability (MTT)” value (mouse hippocampal slices) was “significantly increased the cell viability to almost basal levels” and the “ROS production (H2DCFDA)” value [3] was “significantly decrease ROS production to basal levels; also recorded: significantly reduced ROS production”. For the same compound, the “cell death (PI mean intensity)” value [3] was “reduced hippocampal death with a statistical trend (p = 0.07); also recorded: reduce cell death; although the differences were not statistically significant”, the Papp at 240 min, 100 μg mL^–1 (in vitro; PAMPA, pH 7.4, class from PAMPA-BBB Pe, read-out: CNS-permeability prediction) was over 4 ×10⁻⁶ cm/s and the “PAMPA-BBB (Pe, 10^–6 cm s^–1)” value (in vitro; porcine brain lipid, PBS/EtOH (70:30), 240 min, 25 °C) was 8.0 ± 0.5 10^–6 cm s^–1. For the same compound, the IC50 (hMAO-B) was 8.05 ± 1.82 µM.
